System: differentiated TH17 cells
Assay: TH17 cell differentiation, flow cytometry
Type: cell-based, murine
Conditions: murine TH17 cells
Experimental: Using flow cytometery surface PD-1 expression was analyzed to determine if the decrease in gene expression of PD-1 correlates to a decrease of the protein on the cell surface, Cell: surface PD-1 expression was measured in murine and human T cell lines as well as in ex vivo differentiated murine TH17 cells. […] Next we examined the impact of compound treatment on differentiated murine TH17 cells. […] To determine if there was an increase in the active T cell population during TH17 cell differentiation, the population of CD62L^−PD1^− double negative cells was measured using flow cytometry. […] To determine if the effects of SR0987 on PD-1 expression would be observed in a human cell line, Jurkat T cells were treated with the compound.
TH17 cell differentiation. For naïve T cell differentiation, CD4^+T cells were enriched by negative selection using a magnetic-activated cell sorter kit (Millipore). Enriched CD4+ T cells activated with 5 μg/mL of plate-abound anti CD3 antibody and 1 μg/mL of anti-CD28 antibody in the presence of 20 μg/mL of anti-IFNγ, 20 μg/mL of anti-IL-4, 1 ng/mL of TGFβ, AND 10 ng/mL of IL-6. Four-five days post differentiation, all cells were stimulated for 5 hr with 5 ng/mL of phorbol-12-myristate-13-acetate (Sigma) and 500 ng/mL of ionomycin (Sigma) contained with brefeldin A solution (eBioscience).

## CC(C)=CCC[C@@H](C)[C@H]1CC[C@H]2[C@@H]3CC=C4C[C@@H](O)CC[C@]4(C)[C@H]3CC[C@]12C [desmosterol]
  IL17 production (intracellular staining of IL17A): trend towards increased IL17 production
  surface PD-1 expression: no effect
